# Entries after “also recorded” stand apart in the source; their conditions may differ. Counter-ions that a name gives are not always drawn. Like-named read-outs stand apart in the source and are kept apart here. Marks after values point to notes of the source that are not given here.
# What was measured:
# [1] = Cytotoxicity in H9c2 cells (CCK-8); type: cell-based; settings: rat, H9c2 cells; H9c2 cell line
# Summary of the method: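 H9c2 cells were grown in DMEM with 10% FBS, seeded the day before, and exposed to a range of di-amidine concentrations for 24 h at 37 °C, 5% CO2. Viability was read by CCK-8 after 3 h at 37 °C as absorbance at 450 nm.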
# NIH3T3 cells = test: Cytotoxicity on mammalian cells (CCK-8), NIH3T3; type: cell-based; settings: 3T3 cell line; 24 h
# Summary of the method: (§1)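 Cells seeded a day ahead to ~80% confluency, exposed to varied compound concentrations for 24 h at 37° C, 5% CO2. CCK-8 added for a further 2 h and OD 450 nm read; viability expressed as percent of untreated control.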
# E. coli = test: Ex vivo skin burn infection model, wild-type E. coli; settings: human skin burn, hypromellose gel, 24 hours; 4‰ (w/w) novobiocin, 1.5‰ MD-124
# Procedure: To achieve topical application, compounds were formulated as hypromellose gel. […] After that, skin was loaded with hypromellose gel with different antibiotics and cultured at 37° C. for 24 hours. After 24 hours incubation, the skin sample was homogenized and the supernatants were serially diluted and plated on agar plates, from which bacterial counts on the skin was calculated. […] 1‰ polymyxin B hypromellose gel was used as positive control.
# M. smegmatis = test: MIC on mycobacteria; type: cell-based, Mycobacterium smegmatis; settings: Mycolicibacterium smegmatis, read-out: MIC on mycobacteria
# E. coli (ATCC 25922) = test: MIC determination, sensitization fold and FIC index on E. coli; type: cell-based; settings: for MIC: Escherichia coli
# Summary of the method: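 E. coli in cation-adjusted Mueller Hinton II, 5×10^5 CFU/ml, 24 h at 37 °C shaking; rifampicin two-fold serial dilutions with or without fixed sensitizer (10 μM).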
# [2] = test system: A. baumannii (ATCC 17978); test: MIC, sensitization fold and FIC index on A. baumannii; type: cell-based; settings: Acinetobacter baumannii, ATCC17978; A. baumannii; read-out: MIC of MD-124
# HEK293 cells = test: Cytotoxicity on mammalian cells (CCK-8), HEK293; type: cell-based; settings: for CC50: HEK293 cell line, 24 h; for IC50: Homo sapiens
# Summary of the method: as §1
# B. subtilis = test: MIC determination and sensitization fold on B. subtilis; type: cell-based; settings: for Sensitization fold: erythromycin; for MIC: Bacillus subtilis
# [3] = IC50 of Table 7 (cell line not stated); type: cell-based
# [4] = 10 μM compound, rifampicin as the antibiotic (Table 6)
# [5] = E. coli, rifampicin, compound at 10 μM
smiles,measurement,setting,value
"N=C(N)c1ccc(COc2cc(OCc3ccc(C(=N)N)cc3)cc(C(F)(F)F)c2)cc1 [MD-124, 4,4′-(((5-(trifluoromethyl)-1,3-phenylene)bis(oxy))bis(methylene)) dibenzimidamide dihydrochloride]",CC50 at 24 h,[1],50 µM
same,CC50,NIH3T3 cells,100 µM
same,E. coli growth inhibition / bacterial load vs vehicle group,E. coli,neither 4‰ (w/w) novobiocin nor 1.5‰ MD-124 themselves achieved significant E. coli growth inhibition
same,MIC,M. smegmatis; M. smegmatis,12 µM
same,Sensitization fold,E. coli (ATCC 25922); [4],512 fold
same,Sensitization fold (checkerboard assay),"E. coli (ATCC 25922); E. coli toward rifampicin, ~10 μg/ml MD-124","over 16,000 fold"
same,effect on bacterial growth (OD600 at different time points),"E. coli (ATCC 25922); E. coli, 5 μg/ml compound alone, no antibiotic, dihydrochloride",no bacterial the growth inhibition effect; also recorded: no effect on bacterial growth
same,Sensitization fold,"E. coli (ATCC 25922); E. coli, rifampicin, 5 μg/ml bacterial sensitizer",512 fold
same,Sensitization fold,E. coli (ATCC 25922); [5],512-fold at 10 μM
same,MIC,"E. coli (ATCC 25922); ATCC25922, 24 h, E. coli, compound alone, read-out: MIC",100 µM
same,MIC,"E. coli (ATCC 25922); ATCC25922, E. coli, read-out: MIC of MD-124 itself",50 µg/mL
same,Sensitization fold,"E. coli (ATCC 25922); wild type E. coli towards rifampin, 3 μg/ml MD-124",16 fold
same,Sensitization fold,"E. coli (ATCC 25922); wild-type E. coli towards clarithromycin, 5 μg/ml sensitizer",256 fold
same,MIC,[2],25 µg/mL
same,CC50,HEK293 cells,100 µM
same,IC50,"HEK293 cells; HEK293 cells (Table 6), read-out: IC50",100 µM
"Cc1cc(COc2ccc(C(=N)N)cc2)cc(COc2ccc(C(=N)N)cc2)c1 [MD-100, 4,4′-(((5-methyl-1,3-phenylene)bis(methylene))bis(oxy))dibenzimidamide dihydrochloride]",CC50 at 24 h,[1],50 µM
same,CC50,NIH3T3 cells,100 µM
same,MIC,M. smegmatis,12 µM
same,Sensitization fold,E. coli (ATCC 25922); [4],8 fold
same,Sensitization fold,"E. coli (ATCC 25922); E. coli, rifampicin, 10 μg/ml bacterial sensitizer",32^a fold
same,Sensitization fold,E. coli (ATCC 25922); [5],8-fold at 10 μM
same,Sensitization fold,"E. coli (ATCC 25922); E. coli, rifampicin, compound at 25 μM",32-fold at 25 μM
same,MIC,"E. coli (ATCC 25922); ATCC25922, 24 h",100 µM
same,Sensitization fold,"E. coli (ATCC 25922); wild-type E. coli towards erythromycin, 10 μg/ml MD-100",32 fold
same,growth density compared with the control (no treatment) group,"B. subtilis; B. subtilis, 5.5 μg/ml alone, no antibiotic",80%
same,Sensitization fold,"B. subtilis; B. subtilis, compound at 6 μM",8 fold at 6 μM.
same,Sensitization fold,"B. subtilis; B. subtilis, compound at 12 μM",32-fold at 12 μM;
same,MIC,"B. subtilis; 24 h, B. subtilis, compound alone, read-out: MIC",50 µM
same,MIC,"B. subtilis; wild type B. subtilis, read-out: MIC of DB2560",50 µg/mL
same,IC50,[3],100 µM
same,CC50,HEK293 cells,100 µM
same,IC50,HEK293 cells; HEK293,100 µM
